Reference: patent US11440923B2, “Substituted macrocyclic indole derivatives” (Bayer Aktiengesellschaft, priority 2017, dated 2022)
pEC50, pIC50: −log10 of the molar value. Like-named read-outs stand apart in the source and are kept apart here. One block for each compound: values may come before it.

Experiments:
[1] = 11-membered ring
MV-4-11 cells = experiment: Antiproliferation assay MV-4-11 (Assay 7); format: cell-based; settings: 72 h, CellTiter-Glo; read-out: Antiproli MV-4-11 IC50 median
Procedure: (§1) Assessment of the Anti-Proliferative Effect of Compounds in Different Cell Lines
(§2) The impact of compounds on the proliferation of different cell lines was assessed using the CellTiter-Glo® Luminescent Cell Viability reagent from Promega (G7573).
(§3) In parallel, cells were plated in a reference (day 0) plate for time zero determination. Cells were incubated in a humidified incubator at 37° C. overnight.
(§4) Rim wells were excluded. The cells were incubated for 72 h hours in a humidified incubator at 37° C. The day 0 plate was measured by adding 30 μL/well of CTG solution (CellTiter-Glo® Luminescent Cell Viability reagent, Promega G7573) to time zero wells in the reference plate followed by a 10 minutes incubation and luminescence reading at 0.1 ms. using the PHERAstar FS microplate reader (BMG Labtech).
(§5) After 72 h incubation, the treated plates were measured in the same way as the day 0 plate mentioned above. The Bella DRC Master Sheet was used to calculate IC50s, with CI=day 0 values and C0=DMSO control values.

A2780 cells = experiment: Antiproliferation assay A2780 (Assay 7); format: cell-based; settings: 72 h, CellTiter-Glo; read-out: Antiproli A2780 IC50 median
Procedure: as §1, §2, §3, §4, §5

AMO-1 cells = experiment: Antiproliferation assay AMO-1 (Assay 7); format: cell-based; settings: 72 h, CellTiter-Glo; read-out: Antiproli AMO-1 IC50 median
Summary of the method: (§6)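 Cells were plated overnight at 37° C, then compound-treated for 72 h. Viability was measured by CellTiter-Glo luminescence.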

HMC-1-8 cells = experiment: Antiproliferation assay HMC-1-8 (Assay 7); format: cell-based; settings: 72 h, CellTiter-Glo; read-out: Antiproli HMC-1-8 IC50 median
Summary of the method: as §6

SK-BR-3 cells = experiment: Antiproliferation assay SK-BR-3 (Assay 7); format: cell-based; settings: 72 h, CellTiter-Glo; read-out: Antiproli SK-BR-3 IC50 median
Procedure: as §1, §2, §3, §4, §5

NCI-H23 cells = experiment: Antiproliferation assay NCI-H23 (Assay 7); format: cell-based; settings: 72 h, CellTiter-Glo; read-out: Antiproli NCI-H23 IC50
Procedure: as §1, §2, §3, §4, §5

A2058 cells = experiment: Antiproliferation assay A2058 (Assay 7); format: cell-based; settings: 72 h, CellTiter-Glo; read-out: Antiproli A2058 IC50
Procedure: as §1, §2, §3, §4, §5

SK-MEL-2 cells = experiment: Antiproliferation assay SK-MEL-2 (Assay 7); format: cell-based; settings: 72 h, CellTiter-Glo, read-out: Antiproli SK-MEL-2 IC50 median
Procedure: as §1, §2, §3, §4, §5

SNU-389 cells = experiment: Antiproliferation assay SNU-389 (Assay 7); format: cell-based; settings: 72 h, CellTiter-Glo; read-out: Antiproli SNU-389 IC50
Procedure: as §1, §2, §3, §4, §5

REC-1 cells = experiment: Antiproliferation assay REC-1 (Assay 7); format: cell-based; settings: 72 h, CellTiter-Glo; read-out: Antiproli REC-1 IC50
Procedure: as §1, §2, §3, §4, §5

MBP-MCL1 = MBP-MCL1 (Homo sapiens (Human), UniProt Q07820, K194A/K197A/R201A); experiment: X-ray crystallographic analysis of MBP-MCL1 in complex with inhibitor; format: binding; settings: MBP-MCL1 co-crystal structure
MBP-MCL1, sequence (Q07820 whole entry, looked up, stated change not applied): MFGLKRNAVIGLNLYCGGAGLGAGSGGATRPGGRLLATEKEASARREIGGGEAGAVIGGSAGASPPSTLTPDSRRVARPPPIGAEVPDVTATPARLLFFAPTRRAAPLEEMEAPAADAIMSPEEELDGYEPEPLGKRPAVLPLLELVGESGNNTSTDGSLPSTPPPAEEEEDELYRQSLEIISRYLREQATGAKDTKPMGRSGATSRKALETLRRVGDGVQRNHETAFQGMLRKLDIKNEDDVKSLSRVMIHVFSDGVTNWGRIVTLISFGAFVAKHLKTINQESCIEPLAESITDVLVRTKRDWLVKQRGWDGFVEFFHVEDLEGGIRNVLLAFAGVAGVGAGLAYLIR
Description: For clarity only the ligand non-hydrogen atoms are shown. Carbon atom C7 unambiguously features the (R)-configuration and the bound atropisomer as defined by the C4-C38 axis is the (Ra)-configuration.
The X-ray crystallographic analysis described in the MCL-1 structural analysis section infra, provides an atomic resolution view of the relative arrangement of the atoms of MBP-MCL1 in complex with example 47.

MCL-1 = MCL-1 (Homo sapiens (Human), UniProt Q07820, K194A/K197A/R201A); experiment: Protein-protein interaction assay MCL-1/Noxa BH3 peptide (MCL-1 assay, TR-FRET); format: binding
MCL-1, sequence (Q07820 whole entry, looked up, stated change not applied, the tested form may be a part): as the sequence (Q07820 whole entry, looked up, stated change not applied) above
Procedure: The dose-dependent inhibition by the compounds described in this invention of the interaction between MCL-1 and the BH3 domain of Noxa (both human) was determined using a steady state binding competition assay with time-resolved fluorescence energy transfer (TR-FRET) readout. For that purpose MCL-1 (amino acids 173-321, N-terminal fused to Maltose Binding Protein (MBP) SEQ ID 1)) and a synthetic Noxa BH3-derived peptide of sequence Biotin-PEG2-PEG2-PAELEVE-Nva-[…]-amide (SEQ ID 2) served as protein receptor and tracer ligand respectively. The MBP-MCL-1 was purchased from Beryllium (Bedford, Mass., USA). The expression and purification of this protein construct has been described elsewhere (DOI:10.1371/journal.pone.0125010). The Noxa BH3-derived peptide can be obtained from e.g. Biosyntan (Berlin, Germany).
For that, 100-fold concentrated DMSO solutions were prepared by serial dilutions (1:3.4) of a 2 mM stock solution in a clear, 384-well microtiter plate (Greiner Bio-One, Frickenhausen, Germany). From there, 50 nl were transferred in a dark test plate (Greiner Bio-One, Frickenhausen, Germany). The assay was initiated by addition of 2 μL of a 2,5-fold concentrated MBP-MCL-1 solution (usually for a 1 nM end concentration in 5 μL reaction volume) in aqueous assay buffer [50 mM Tris/HCl pH 7, 100 mM sodium chloride (NaCl), 50 mM potassium fluoride (KF), 0.005% Tween-20, 2 mM DTT, 0.1% bovine gamma globulin (BGG)] to the compounds in the assay plate. This was followed by a 10-minute incubation step at 22° C. for pre-equilibration of the putative complex between MBP-MCL-1 and the compounds.
The mixture was incubated in the dark for one hour at 22° C. and then overnight at 4° C. The formation of MCL-1/Noxa complexes was determined by measuring the resonance energy transfer of the anti-MBP-Eu-cryptate antibody to the streptavidin-XL665 present in the reaction.
For that purpose, the fluorescence emission at 620 nm and 665 nm after excitation at 330-350 nm was measured in a TR-FRET measuring instrument, for instance a Rubystar or a Pherastar (both from BMG Lab Technologies, Offenburg, Germany) or a Viewlux (Perkin-Elmer). The ratio of the emission at 665 nm and at 622 nm was used as indicator of the amount of MCL-1/NOXA complexes present.
The resulting data (ratio) were normalized, taking 0% inhibition as the mean value of control measurements (usually 32 data points) where all reagents were included. In this case 50 nl DMSO were used instead of compounds. […] IC50 values were determined by regression analysis based on a 4 parameter equation (minimum, maximum, IC50, Hill; Y=Max+(Min−Max)/(1+(X/IC50)^Hill) using the Screener Software (Genedata).

SUDHL5 cells [2] = experiment: Induction of cytotoxicity in SUDHL5 cells (Assay 6); format: cell-based; settings: 5 h, CellTiter-Glo; read-out: Cytotox SUDHL5 IC50 (median)
Summary of the method: (§7)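 Cells plated overnight at 37 °C, then exposed to compound for 5 h in a humidified incubator at 37 °C. Viability read by CellTiter-Glo luminescence after 15 min shaking at room temperature; cell-free medium served as control.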

SUDHL10 cells [3] = experiment: Induction of cytotoxicity in SUDHL10 cells (Assay 6); format: cell-based; settings: 5 h, CellTiter-Glo; read-out: Cytotox SUDHL10 IC50 (median)
Summary of the method: as §7

SUDHL5 cells [4] = experiment: Induction of caspase-3/7 activity in SUDHL5 cells (Assay 4); format: cell-based; settings: caspase-3/7 induction, 3 h; read-out: Caspase SUDHL5 EC50 (median)
Summary of the method: (§8)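 Read-out: Caspase-Glo 3/7 luminescence (1 h, 37 °C) after cells, plated overnight, were treated with compounds for 3 h at 37 °C. Signal corrected for cell-free medium background and expressed relative to DMSO control mean.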

SUDHL10 cells [5] = experiment: Induction of caspase-3/7 activity in SUDHL10 cells (Assay 4); format: cell-based; settings: caspase-3/7 induction, 3 h; read-out: Caspase SUDHL10 EC50 (median)
Summary of the method: as §8

SUDHL5 cells [6] = experiment: Antiproliferation assay SUDHL5 (Assay 7); format: cell-based; settings: 72 h, CellTiter-Glo; read-out: Antiproli SUDHL5 IC50 (median)
Summary of the method: as §6

SNU-16 cells = experiment: Antiproliferation assay SNU-16 (Assay 7); format: cell-based; settings: Homo sapiens, SNU-16; 72 h, CellTiter-Glo; read-out: Antiproli SNU-16 IC50 median
Procedure: as §1, §2, §3, §4, §5

A-431 cells = experiment: Antiproliferation assay A-431 (Assay 7); format: cell-based; settings: Homo sapiens, A-431; 72 h, CellTiter-Glo; read-out: Antiproli A-431 IC50 median
Procedure: as §1, §2, §3, §4, §5

PA-1 cells = experiment: Antiproliferation assay PA-1 (Assay 7); format: cell-based; settings: Homo sapiens, PA-1; 72 h, CellTiter-Glo; read-out: Antiproli PA-1 IC50 median
Procedure: as §1, §2, §3, §4, §5

DMS-114 cells = experiment: Antiproliferation assay DMS-114 (Assay 7); format: cell-based; settings: Homo sapiens; DMS-114 cells, 72 h, CellTiter-Glo; read-out: Antiproli DM-S114 IC50 median
Procedure: as §1, §2, §3, §4, §5

pIC50 (MV-4-11 cells): 4.64
pIC50 (A2780 cells): < 4.48
Compound: Cc1c2c(nn1C)C(CCN1CCOCC1)OCCCCn1c(C(=O)O)c(CCCOc3cccc4ccccc34)c3cccc-2c31 (stereo not drawn) [Example 06]

pIC50 (MV-4-11 cells): 5.76
pIC50 (SK-BR-3 cells): 5.14
pIC50 (A2780 cells): 4.84
pIC50 (NCI-H23 cells): 5.16
pIC50 (SK-MEL-2 cells): 4.94
Compound: Cc1c2c(nn1C)C(CCN1CCOCC1)OCCCCn1c(C(=O)O)c(CCCOc3cccc4ccccc34)c3cccc-2c31 (stereo not drawn) [Example 05]
pIC50 (AMO-1 cells): 5.02
pIC50 (HMC-1-8 cells): 5.20
pIC50 (A2058 cells): 4.89

pIC50 (MV-4-11 cells): 5.76
pIC50 (A2780 cells): 4.84
pIC50 (SNU-389 cells): 4.97
Compound: Cc1c2c(nn1C)C(CCN1CCOCC1)OCCCCn1c(C(=O)O)c(CCCOc3cccc4ccccc34)c3cccc-2c31 (stereo not drawn) [Example 04]
pIC50 (AMO-1 cells): 5.59
pIC50 (REC-1 cells): 4.68

pIC50 (MV-4-11 cells): 6.74
pIC50 (A2780 cells): 5.39
Compound: Cc1c2c(nn1C)C(CCN1CCOCC1)OCCCCn1c(C(=O)O)c(CCCOc3cccc4ccccc34)c3ccc(F)c-2c31 (stereo not drawn) [Example 07]
pIC50 (AMO-1 cells): 6.33
pIC50 (HMC-1-8 cells): 5.79

interaction with the target MCL1 shown by X-ray structure of the complex (MBP-MCL1): clear and direct interaction
pIC50 (MCL-1; read-out: MCL-1 Assay IC50 (median)): 9.43
Compound: CCc1c2c(nn1C)[C@@H](CCN1CCOCC1)OCCCCn1c(C(=O)O)c(CCCOc3cccc4cc(F)ccc34)c3ccc(Cl)c-2c31 [Example 47, (+)-4-chloro-3-ethyl-7-{3-[(6-fluoronaphthalen-1-yl)oxy]propyl}-2-methyl-(15R)-[2-(morpholin-4-yl)ethyl]-2,10,11,12,13,15-hexahydropyrazolo[4′,3′:9,10][1,6]oxazacycloundecino[8,7,6-hi]indole-8-carboxylic Acid]
pIC50 (SUDHL5 cells [2]): 8.09
pIC50 (SUDHL10 cells [3]): 8.10

pIC50 (MCL-1; MCL-1 Assay IC50 (median)): 9.27
pEC50 (SUDHL5 cells [4]): 7.08
pEC50 (SUDHL10 cells [5]): 7.41
pIC50 (SUDHL5 cells [6]): 7.03
pIC50 (SNU-389 cells): 6.51
pIC50 (SK-MEL-2 cells; Homo sapiens, SK-MEL-2): 6.30
pIC50 (SNU-16 cells): 5.95
pIC50 (A-431 cells): 6.38
Compound: CCc1c2c(nn1C)C(CCCN1CCOCC1)OCCCCn1c(C(=O)O)c(CCCOc3cccc4cc(F)ccc34)c3ccc(Cl)c-2c31 (single isomer, unassigned; enantiomer 1) [Example 66, (+)-4-chloro-3-ethyl-7-{3-[(6-fluoronaphthalen-1-yl)oxy]propyl}-2-methyl-15-[3-(morpholin-4-yl)propyl]-2,10,11,12,13,15-hexahydropyrazolo[4′,3′:9,10][1,6]oxazacycloundecino[8,7,6-hi]indole-8-carboxylic Acid (Enantiomer 1)]
pIC50 (SUDHL5 cells [2]): 6.96
pIC50 (SUDHL10 cells [3]): 7.26
pIC50 (AMO-1 cells): 7.55
pIC50 (HMC-1-8 cells): 5.94
pIC50 (PA-1 cells): 6.08
pIC50 (DMS-114 cells): 6.12

More lines, now with the values behind:

Compound: (rac)-ethyl 4-chloro-3-ethyl-7-{3-[(6-fluoronaphthalen-1-yl)oxy]propyl}-2-methyl-(15-rac)-[2-(4-methylpiperazin-1-yl)ethyl]-2,10,11,12,13,15-hexahydropyrazolo[4′,3′:9,10][1,6]oxazacycloundecino[8,7,6-hi]indole-8-carboxylate
ring closure, isolated yield ([1]; amine bond, PPh3/DTBAD, THF, 22.7 mM): 49%

Compound: ethyl (15-rac)-4-chloro-3-ethyl-15-[2-(3-rac-(fluoroazetidin-1-yl)ethyl]-7-{3-[(6-fluoronaphthalen-1-yl)oxy]propyl}-2-methyl-2,10,11,12,13,15-hexahydropyrazolo[4′,3′:9,10][1,6]oxazacycloundecino[8,7,6-hi]indole-8-carboxylate (Mixture of Stereoisomers)
ring closure, isolated yield ([1]; amine bond, PPh3/DTBAD, THF, 69.2 mM): 77%

Compound: CCOC(=O)c1[nH]c2c(-c3c(C(O)CCN4CCOCC4)nn(C)c3CC)c(F)ccc2c1CCCOc1cccc2ccccc12 (racemic)
ring closure, isolated yield ([1]; the molecule shown is the open-chain precursor, crosslinker bond, (Z)-1,4-dichlorobut-2-ene/Cs2CO3/NaI, MeCN, 98.0 mM, […]): 50%

Compound: CCOC(=O)c1[nH]c2c(-c3c(C(O)C4CC4)nn(C)c3CC)c(Cl)ccc2c1CCCOc1cccc2cc(F)ccc12 (racemic)
ring closure, isolated yield ([1]; the molecule shown is the open-chain precursor, crosslinker bond, (Z)-1,4-dichlorobut-2-ene/Cs2CO3/NaI, MeCN, 197.0 mM, 70.0 °C): 59%

Compound: CCOC(=O)c1c(CCCOc2cccc3cc(F)ccc23)c2ccc(Cl)c3c2n1CCC(F)(F)COC(CCN1CCOCC1)c1nn(C)c(CC)c1-3 (stereo not drawn)
ring closure, isolated yield ([1]; from CCOC(=O)c1[nH]c2c(-c3c(C(CCN4CCOCC4)OCC(F)(F)CCO)nn(C)c3CC)c(Cl)ccc2c1CCCOc1cccc2cc(F)ccc12, amine bond, PPh3/DTBAD, THF, 22.5 mM): 83%
